Target: T1, Axl (Homo sapiens, UniProt P30530)
T1 construct: endogenous in cells; host or cells: HeLa cells
T1 sequence (P30530 26-894): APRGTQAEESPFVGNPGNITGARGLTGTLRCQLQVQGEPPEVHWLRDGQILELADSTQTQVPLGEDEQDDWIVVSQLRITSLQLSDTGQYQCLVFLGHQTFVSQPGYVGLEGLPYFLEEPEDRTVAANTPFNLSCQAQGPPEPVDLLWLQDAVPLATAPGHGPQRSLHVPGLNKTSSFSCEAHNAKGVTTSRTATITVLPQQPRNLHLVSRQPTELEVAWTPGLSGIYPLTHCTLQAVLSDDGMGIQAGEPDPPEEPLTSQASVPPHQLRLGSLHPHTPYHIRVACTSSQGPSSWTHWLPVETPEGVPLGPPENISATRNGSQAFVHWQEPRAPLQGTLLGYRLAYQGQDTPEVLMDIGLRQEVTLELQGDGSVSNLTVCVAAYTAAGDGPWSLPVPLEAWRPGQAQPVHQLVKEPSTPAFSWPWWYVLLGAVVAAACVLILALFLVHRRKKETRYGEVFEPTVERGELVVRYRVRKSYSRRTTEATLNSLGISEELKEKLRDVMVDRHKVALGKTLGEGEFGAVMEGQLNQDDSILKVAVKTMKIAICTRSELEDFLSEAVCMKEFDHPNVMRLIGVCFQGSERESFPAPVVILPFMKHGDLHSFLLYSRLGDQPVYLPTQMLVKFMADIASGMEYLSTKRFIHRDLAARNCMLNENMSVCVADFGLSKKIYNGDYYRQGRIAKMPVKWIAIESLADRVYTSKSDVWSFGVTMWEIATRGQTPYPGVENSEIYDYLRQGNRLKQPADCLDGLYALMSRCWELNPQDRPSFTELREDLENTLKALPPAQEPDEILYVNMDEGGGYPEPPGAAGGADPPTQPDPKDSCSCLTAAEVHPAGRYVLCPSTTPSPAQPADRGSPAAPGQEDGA
Test: Phospho-Akt in-cell Western assay (inhibition of Axl activity)
Format: cell-based
Experimental: The compounds of the invention were tested in the following assay for their ability to inhibit Axl activity.
Phospho-Akt in-Cell Western Assay
• Cell culture plate: 96 well assay plate (Corning 3610), white, clear bottom, tissue-culture treated. • Cells: Hela cells. • Starvation medium: For Axl stimulation: 0.5% FCS (fetal calf serum) in DMEM, plus Axl/Fc (extracellular domain of AXL fused to immunoglobulin Fc region) (R&D, 154-AL) 500 ng/mL. • For EGF (epidermal growth factor) stimulation: 0.5% FCS in DMEM (Dulbecco's modified Eagles medium). • Poly-L-Lysine 0.01% solution (the working solution): 10 μg/ml, dilute In PBS (phosphate buffered saline). • Axl antibody cross-linking: • 1st: Mouse anti-Axl (R&D, MAB154). • 2nd: Biotin-SP-conjugated AffiniPure goat anti-mouse IgG (H+L) (Jackson ImmunoResearch #115-065-003). • Fixing buffer: 4% formaldehyde in PBS. • Wash buffer: 0.1% TritonX-100 in PBS. • Quenching buffer: 3% H2O2, 0.1% Azide in wash buffer, Azide and hydrogen peroxide (H2O2) are added fresh. • Blocking buffer: 5% BSA in TBST (tris buffered saline plus 0.1% Tween 20). • Primary antibody: Rabbit anti-human Phospho-Akt antibody (Cell Signaling 9271): 1×250 diluted in blocking buffer. • Secondary antibody: HRP (horse radish peroxidase)-conjugated Goat anti-Rabbit secondary, stock solution: Jackson ImmunoResearch (Goat anti-Rabbit HRP, #111-035-144) 1:1 diluted in glycerol, store at −20° C. The working solution: 1×2000 dilution of stock in blocking buffer. • Chemiluminescent working solution (Pierce, 37030): SuperSignal ELISA (enzyme linked immunosorbant assay) Pico Chemiluminescent substrate. • Crystal Violet solution: Stock: 2.5% Crystal violet in methanol, filtered and kept at ambient temperature. The working solution: dilute the stock 1:20 with PBS immediately before use. • 10% SDS: working solution: 5% SDS (sodium dodecylsulfate), diluted in PBS Methods: Day 1:
A 96 well TC (tissue culture treated) plate was coated with 10 μg/mL poly-L-Lysine at 37° C. for 30 min, washed twice with PBS, and air-dried for 5 minutes before cells were added. Hela cells were seeded at 10,000 cells/well and the cells were starved in 100 μL starvation medium containing Axl/Fc for 24 hrs.
The cells were pre-treated with test compounds by adding 100 μL of 2× test compound to the starvation medium on the cells. The cells were incubated at 37° C. for 1 hr before stimulation.
The cells were stimulated by Axl-antibody cross-linking as follows: A 5×1st/2nd Axl antibody mixture was made (37.5 μg/mL 1st/100 μg/mL 2nd) in starvation medium and nutated at 4° C. with thorough mixing for 1-2 hours for clustering. The resulting mix was warmed to 37° C. 50 μL of 5× Axl 1st/2nd of antibody cluster was added to the cells and the cells were incubated at 37° C. for 5 min.
After 5 minutes stimulation, the plate was flicked to remove medium and the plate was tapped onto paper towels. Formaldehyde (4.0% in PBS, 100 μL) was added to fix the cells and the cells were incubated at ambient temperature for 20 min without shaking.
The cells were washed with a plate washer buffer to remove the formaldehyde solution. The plate was flicked to removed excess wash buffer and tapped onto paper towels. Quenching buffer (100 μL) was added to each well and the cells were incubated at ambient temperature for 20 minutes without shaking.
The cells were washed with a plate washer buffer to remove the quenching buffer. Blocking buffer (100 μL) was added and the cells were incubated at ambient temperature for at least an hour with gentle shaking.
The cells were washed with a plate washer buffer and diluted primary antibody (50 μL) was added to each well (blocking buffer was added to the negative control wells instead). The plates were incubated overnight at 4° C. with gentle shaking.
The wash buffer was removed, diluted secondary antibody (100 μL) was added, and the cells were incubated at ambient temperature for 1 hour with gentle shaking. […]

[1] = Table 5, Hela cells, Axl antibody cross-linking stimulation, phospho-Akt chemiluminescence
[2] = inhibition of Axl activity, Table 1
[3] = Table 8, Hela cells, Axl antibody cross-linking stimulation, phospho-Akt chemiluminescence
[4] = inhibition of Axl activity, phospho-Akt in-cell Western assay, Table 1
[5] = Table 7, Hela cells, Axl antibody cross-linking stimulation, phospho-Akt chemiluminescence

## CC(C)(C)Oc1ccc(C(=O)n2nc(N)nc2NC2C3C=CC(C3)C2C(N)=O)cc1 (stereo not shown) [compound 345, 3-amino-1-(4-(tert-butoxy)phenyl)carbonyl-5-[(3-(aminocarbonyl)bicyclo[2.2.1]hept-5-en-2-yl)amino]-1H-1,2,4-triazole]
Table 6, Hela cells, Axl antibody cross-linking stimulation, phospho-Akt chemiluminescence
  IC50: > 20 µM

## CC(C)Oc1ccc(C(=O)n2nc(Nc3ccc4c(c3)C(NC(=O)OC(C)(C)C)CCO4)nc2N)cc1 (stereo not shown) [compound 274]
[1]
  IC50: > 20 µM

## CC(C)(C)Oc1ccc(C(=O)n2nc(Nc3ccc(OCCN4CCCCC4)cc3)nc2N)cc1 [compound 50, 5-amino-3-[4-[2-(piperidin-1-yl)ethoxy]phenylamino]-1-(4-(tert-butoxy)phenyl)carbonyl-1H-1,2,4-triazole]
[2]
  IC50: < 1 µM

## CC(C)Oc1ccc(Nc2nc(N)n(C(=O)c3cccc(Cl)c3)n2)cc1 [compound 76, 5-amino-1-(3-(chloro)phenyl)carbonyl-3-[4-(iso-propoxy)phenylamino]-1H-1,2,4-triazole]
[2]
  IC50: > 20 µM

## Cc1cccc(C(=O)n2nc(Nc3ccc4cnn(C)c4c3)nc2N)c1 [compound 254, 5-amino-3-(1H-1-methyl-indazol-6-yl)amino-1-(3-methylphenyl)carbonyl-1H-1,2,4-triazole]
[1]
  IC50: > 20 µM

## CC(C)Oc1ccc(C(=O)n2nc(N)nc2Nc2ccc(OCCN3CCCCC3)cc2)cc1 [compound 47, 3-amino-1-(4-(iso-propoxy)phenyl)carbonyl-5-[4-[2-(piperidin-1-yl)ethoxy]phenylamino]-1H-1,2,4-triazole]
Table 2, Hela cells, Axl antibody cross-linking stimulation, phospho-Akt chemiluminescence
  IC50: > 20 µM

## CC(C)Oc1ccc(Nc2nc(N)n(C(=O)c3cccc(O)c3)n2)cc1 [compound 73, 5-amino-1-(3-(hydroxy)phenyl)carbonyl-3-[4-(iso-propoxy)phenylamino]-1H-1,2,4-triazole]
[2]
  IC50: 1 to 10 µM

## CC(C)(C)Oc1ccc(C(=O)n2nc(NC3CCN(S(C)(=O)=O)CC3)nc2N)cc1 [compound 393, 5-amino-1-(4-(tert-butoxy)phenyl)carbonyl-3-(1-methylsulfonylpiperidin-4-yl)amino-1H-1,2,4-triazole]
[1]
  IC50: > 20 µM

## CNC(=O)COc1cccc(Nc2nc(N)n(C(=O)c3cccc(C)c3)n2)c1 [compound 146, 5-amino-3-[3-(methylaminocarbonylmethoxy)phenylamino]-1-(3-(methyl)phenyl)carbonyl-1H-1,2,4-triazole]
[2]
  IC50: 1 to 10 µM

## Cc1ccc(Nc2nc(N)n(C(=O)c3ccc(C)cc3)n2)cc1 [compound 131, 5-amino-3-[4-(methyl)phenylamino]-1-(4-(methyl)phenyl)carbonyl-1H-1,2,4-triazole]
[2]
  IC50: > 20 µM

## CC(=O)N(C)c1ccc(Nc2nc(N)nn2C(=O)Nc2ccc3c(c2)OCO3)cc1 [compound 176, 5-[4-(acetyl(methyl)amino)phenyl]amino-3-amino-N-(1,3-benzodioxol-5-yl)-1H-1,2,4-triazole-1-carboxamide]
[3]
  IC50: > 20 µM

## Cc1cccc(C(=O)n2nc(Nc3ccc4ncccc4c3)nc2N)c1 [compound 251, 5-amino-1-(3-methylphenyl)carbonyl-3-(6-quinolinyl)amino-1H-1,2,4-triazole]
[1]
  IC50: 1 to 10 µM

## Nc1nc(Nc2ccc(OCCN3CCCC3)cc2)nn1C(=O)c1ccc(N2CCCCC2)cc1 [compound 401, 5-amino-1-(4-(piperidin-1-yl)phenyl)carbonyl-3-[4-[2-(pyrrolidin-1-yl)ethoxy]phenylamino]-1H-1,2,4-triazole]
[4]
  IC50: < 1 µM

## Cc1ccc(NC(=O)n2nc(Nc3ccc(OCCN4CCCCC4)cc3)nc2N)cc1C [compound 38, 5-amino-N-(3,4-(dimethyl)phenyl)-3-[4-[2-(piperidin-1-yl)ethoxy]phenylamino]-1H-1,2,4-triazole-1-carboxamide]
[5]
  IC50: 1 to 10 µM

## CC(C)Oc1ccc(C(=O)n2nc(Nc3ccc(OCC(F)(F)F)cc3)nc2N)cc1 [compound 152, 5-amino-1-(4-(iso-propoxy)phenyl)carbonyl-3-[4-(2,2,2-trifluoroethoxy)phenylamino]-1H-1,2,4-triazole]
[2]
  IC50: > 20 µM

## Nc1nc(Nc2ccc(OCCN3CCCCC3)cc2)nn1C(=O)Nc1ccc2c(c1)OCO2 [compound 35, 5-amino-N-(1,3-benzodioxol-5-yl)-3-[4-[2-(piperidin-1-yl)ethoxy]phenylamino]-1H-1,2,4-triazole-1-carboxamide]
[5]
  IC50: 1 to 10 µM

## Nc1nc(Nc2ccc(OCCN3CCCCC3)cc2)n(C(=O)Nc2ccc3c(c2)OCO3)n1 [compound 193, 3-amino-N-(1,3-benzodioxol-5-yl)-5-[4-[2-(piperidin-1-yl)ethoxy]phenylamino]-1H-1,2,4-triazole-1-carboxamide]
[3]
  IC50: 1 to 10 µM

## COc1ccccc1Nc1nc(N)n(C(=O)c2ccc(C)cc2)n1 [compound 143, 5-amino-3-[2-(methoxy)phenylamino]-1-(4-(methyl)phenyl)carbonyl-1H-1,2,4-triazole]
[2]
  IC50: > 20 µM

## CC(=O)N(C)c1ccc(Nc2nc(N)n(C(=O)Nc3ccc(Cl)cc3)n2)cc1 [compound 174, 3-[4-(acetyl(methyl)amino)phenyl]amino-5-amino-N-(4-chlorophenyl)-1H-1,2,4-triazole-1-carboxamide]
[5]
  IC50: > 20 µM

## Nc1nc(Nc2ccc(OCCN3CCCC3)cc2)nn1C(=O)c1cccc(OC(F)(F)F)c1 [compound #7, 5-Amino-3-[4-[2-(pyrrolidin-1-yl)ethoxy]phenylamino]-1-(3-(trifluoromethoxy)phenyl)carbonyl-1H-1,2,4-triazole]
[4]
  IC50: < 1 µM

## CC1(C)Oc2ccc(C(=O)n3nc(N)nc3Nc3ccc(N4CCCC4)cc3)cc2NC1=O [compound 296, 3-amino-1-(2,2-dimethyl-2H-benzo[b][1,4]oxazin-3(4H)-on-6-yl)carbonyl-5-[4-(pyrrolidin-1-yl)phenylamino]-1H-1,2,4-triazole]
Table 4, Hela cells, Axl antibody cross-linking stimulation, phospho-Akt chemiluminescence
  IC50: 10 to 20 µM

## Cc1ccc(C(=O)n2nc(Nc3cccc(F)c3)nc2N)cc1 [compound 124, 5-amino-3-[3-(fluoro)phenylamino]-1-(4-(methyl)phenyl)carbonyl-1H-1,2,4-triazole]
[2]
  IC50: 10 to 20 µM

Source: patent US8389557B2, “Triazole derivatives useful as Axl inhibitors” (Rigel Pharmaceuticals, Inc., priority 2005, dated 2013)
